Measurements from US11154519B2, “Inhibitors and their uses” (MEDICAL RESEARCH COUNCIL, priority 2015, dated 2021).
Like-named read-outs stand apart in the source and are kept apart here.

Assays:
[1] = target: T1, PPP1R15A-PP1 complex (Homo sapiens, UniProt O75807); assay: SPR steady-state binding to R15A-PP1 holophosphatase
T1 construct: cDNAs encoding amino acids 325-636 of PPP1R15A and 340-698 of PPP1R15B were His-tagged and cloned into pMAL-c5x; made in house; host or cells: R15A: E. coli BL21-Gold (pMAL-c5x); PP1γ: Sf9 insect cells (baculovirus, pDW464)
T1 sequence (O75807 325-636): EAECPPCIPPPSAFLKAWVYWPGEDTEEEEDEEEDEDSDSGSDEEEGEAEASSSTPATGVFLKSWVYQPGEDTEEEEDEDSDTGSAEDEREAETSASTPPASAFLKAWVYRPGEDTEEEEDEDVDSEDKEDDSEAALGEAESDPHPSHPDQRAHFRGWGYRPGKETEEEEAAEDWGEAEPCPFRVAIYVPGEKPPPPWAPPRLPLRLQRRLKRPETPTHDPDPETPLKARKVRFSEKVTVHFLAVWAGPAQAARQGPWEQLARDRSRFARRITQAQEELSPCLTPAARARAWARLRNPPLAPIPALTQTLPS
T1 sequence (P36873 whole entry partner, the tested form may be a part): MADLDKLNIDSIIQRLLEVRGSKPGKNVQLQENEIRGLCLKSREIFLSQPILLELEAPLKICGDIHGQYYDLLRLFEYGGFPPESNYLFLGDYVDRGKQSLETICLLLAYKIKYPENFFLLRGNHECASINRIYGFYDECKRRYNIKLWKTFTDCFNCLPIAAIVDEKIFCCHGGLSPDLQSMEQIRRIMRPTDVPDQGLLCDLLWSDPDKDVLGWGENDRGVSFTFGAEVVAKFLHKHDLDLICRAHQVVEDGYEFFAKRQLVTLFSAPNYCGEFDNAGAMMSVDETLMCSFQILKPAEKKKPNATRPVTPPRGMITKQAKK
Method: (§1) PPP1R15A^325-636 and PPP1R15B^340-698 were expressed and purified as follows: the cDNAs encoding amino acids 325-636 of PPP1R15A and 340-698 of PPP1R15B were His-tagged and cloned into pMAL-c5x. Recombinant PPP1R15A/B were expressed in BL21-Gold cells and purified by affinity chromatography on a HisTrap HP column (GE Healthcare), followed by a MBPTrap HP column (GE Healthcare). The proteins were analyzed on BOLT SDS-PAGE 4-12% Bis-Tris gels (Life Technologies) stained with SimplyBlue SafeStain (Life Technologies). cDNA encoding for human PP1γ was cloned into the baculovirus transfer vector pDW464 to add a biotin acceptor peptide (BAP). The vector also encodes for the E. coli biotin holoenzyme synthetase (BirA), so that BAP-tagged proteins can be biotinylated in vivo in Spodoptere frugiperda (Sf9) insect cells (Duffy et al., Anal. Biochem., 262, 122-128, 1998). The Bac-to-Bac baculovirus expression system (Life Technologies) was used to generate the recombinant bacmid DNA and Sf9 insect cells were used to amplify the viral stocks Cultures were harvested by centrifuging at 1,200 g for 15 minutes, cell pellets were resuspended in lysis buffer (50 mM Tris pH 7.4, 150 mM NaCl, 0.2% Triton, 5% Glycerol, 1 PiC tablet (Roche) per 50 ml and 0.2 mM PMSF) and followed by gentle sonication. The protein was first purified on a 5 ml HiTrap Q HP column (GE Healthcare) followed by a HiLoad 16/600 Superdex 200 column (GE Healthcare). The positive fractions confirmed by SDS-PAGE and western blot were pooled, concentrate to ˜1 μM and stored at −80° C.
(§2) A Biacore T200 (GE Healthcare) system was used for all experiments and biotinylated PP1 was captured using a Sensor Chip SA (GE Healthcare, catalog no BR-1005-31). The streptavidin coated surface was activated by 1 min injection with a solution of 50 mM NaOH and 1 M NaCl. Biotin-PP1 was diluted in the running buffer (50 mM Tris pH 7.5, 100 mM NaCl, 0.1 mM EGTA, 1 mM MnCl2, 0.05% Tween 20) and injected at approximately 300 nM concentration directly to streptavidin coated surface for 100 sec or to reach immobilization level of biotin-PP1 corresponding to ˜7000 RU. A blank immobilization was performed for one of the SA sensor chip surface to use as a reference.
(§3) With minor deviations, the same procedure and conditions were used in all binding experiments. Small molecules were stored as 50 mM stock solutions in 100% DMSO. Prior to determining binding constants, serial dilutions of either 12 or 8 concentrations of the compounds were prepared in the running buffer in a 96-well plate. Prior to each compound dilution series the regulatory subunit, R15A or R15B, was diluted to […] in the running buffer and captured on the biotin-PP1 surface, to form the holophosphatase complex on the sensor chip surface. Then, without regenerating the surface, the compound dilution series was injected onto the surface of the chip Sensorgrams were analyzed using the Biacore T200 evaluation software and the binding constants determined based on a steady-state model. Kinetic experiments are carried out using different concentrations of the compound and their respective equilibrium binding levels determined.
(§4) Surface Plasmon Resonance (SPR) was used to measure the binding affinity of compounds to the PPP1R15A/B-PP1 phosphatase complex. Biotin acceptor peptide (BAP) was fused to the N-terminus of PP1γ, which enables the biotinylation of the BAP-tagged protein in Sf9 insect cells. After purification the BAP-PP1γ protein was captured on a streptavidin sensor chip (SA-chip, GE healthcare) to a response level of ˜5.000 RU. Using controlled biotinylation enables orientated and uniform immobilization on the sensor chip surface. The PP1γ was then used to capture PPP1R15A/B and form a holophosphatase complex on the surface of the streptavidin chip. This complex can then be used to test binding of compounds. 10 μM PPP1R15A/B protein concentration was used to form the holophosphatase complex during a 80 s injection. […]

[2] = target: T2, PPP1R15B-PP1 (Homo sapiens, UniProt Q5SWA1); assay: SPR steady-state binding to R15B-PP1 holophosphatase
T2 construct: cDNAs encoding amino acids 325-636 of PPP1R15A and 340-698 of PPP1R15B were His-tagged and cloned into pMAL-c5x; made in house; host or cells: R15B: E. coli BL21-Gold (pMAL-c5x); PP1γ: Sf9 insect cells (baculovirus, pDW464)
T2 sequence (Q5SWA1 340-698): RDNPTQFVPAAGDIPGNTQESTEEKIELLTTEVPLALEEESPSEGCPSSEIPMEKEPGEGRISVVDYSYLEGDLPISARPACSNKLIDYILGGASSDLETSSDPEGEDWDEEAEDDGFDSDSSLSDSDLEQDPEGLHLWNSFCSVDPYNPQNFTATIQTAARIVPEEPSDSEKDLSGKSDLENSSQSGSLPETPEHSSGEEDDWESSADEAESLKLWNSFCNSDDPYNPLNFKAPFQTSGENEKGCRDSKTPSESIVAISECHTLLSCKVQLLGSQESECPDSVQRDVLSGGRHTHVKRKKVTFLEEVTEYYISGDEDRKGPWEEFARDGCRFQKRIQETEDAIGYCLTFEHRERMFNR
T2 sequence (P36873 whole entry partner, the tested form may be a part): as the sequence (P36873 whole entry partner, the tested form may be a part) above
Method: as §1, §2, §3, §4

[3] = test system: HeLa cells; assay: Cytoprotection against ER stress (tunicamycin), IncuCyte; format: cell-based; details: Homo sapiens, 250 ng/ml Tunicamycin, 72 hours, compound 0-20 μM, read-out: Cytoprotection from Tm (compared to GNB)
Method: (§5) HeLa cells (40,000 cells/ml) were plated in a 96-well plate and treated with different concentrations (0-20 μM) of a compound as indicated in the presence of 250 ng/ml Tunicamycin for 72 hours. To monitor cell death 1/2000 dilution of the CellTox green dye (Promega) was added to the media. The growth of the cells was monitored over time and pictures taken every 2 hours with the IncuCyte ZOOM system and analysed by the IncuCyte ZOOM software (Essen BioScience). […] Cytoprotection against ER stress can be measured by a suitable assay. In this instance, cytoprotection was measured in HeLa cells in which ER stress was elicited by the addition of media containing tunicamycin, a drug that blocks N-glycosylation, thereby preventing protein folding and inducing the unfolded protein response. Cell viability was then detected in the presence and absence of a compound listed in Table 1 after a set period of time, by monitoring cell growth over time. Cytoprotection from ER stress was measured in terms of the percentage increase in viable cells (relative to control) after ER stress.

[4] = test system: HeLa cells; assay: Cell death dose response (CellTox green, IncuCyte); format: cell-based; details: for EC50: Homo sapiens, area under % cell death vs time curve against log conc, read-out: Effect on cell death ⇒ EC50; for Effect on cell death: IncuCyte, 0-20 μM
Method: Toxicity of the compounds is assessed using Cell viability Counting Kit-8 (Dojindo) or in a Incucyte (Essenbioscience) using both phase contrast and IncuCyte™ Cytotox Green Reagent.
as §5
EC50 were extrapolated from dose response experiments on cell death. Data from IncuCyte was plotted and analysed in Prism. The “% of cell death” for each data point. For each concentration there is a % of cell death vs time, the area under the curve was taken and plotted against log conc=>EC50 (analysis in Prism).

[5] = SPR steady-state, MBP-R15A325-636-His captured on bio-PP1c, 10° C., read-out: R15A (KD)
[6] = SPR steady-state, MBP-R15B340-698-His captured on bio-PP1c, 10° C., read-out: R15B (KD)

[H]/N=C(\N)NN=Cc1cc(F)ccc1Cl [Compound 20, (E)-2-(2-chloro-5-fluorobenzylidene)hydrazine-1-carboximidamide]
Kd [1, 5]: 5.67 ± 0.72 µM | Kd [2, 6]: 5.17 ± 0.69 µM | Emax [3]: 88% | EC50 [4]: 37.8 µM | Effect on cell death [4]: Yes

[H]/N=C(\N)NN=Cc1ccc(Cl)nc1Cl [Compound 22, (E)-2-((2,6-dichloropyridin-3-yl)methylene)hydrazine-1-carboximidamide]
Kd [1, 5]: 7.62 µM | Kd [2, 6]: 12.3 µM | Emax [3]: 48% | Effect on cell death [4]: No

[H]/N=C(\N)NN=Cc1ccc(Cl)c(Cl)c1Cl [Compound 6, (E)-2-(2,3,4-trichlorobenzylidene)hydrazine-1-carboximidamide]
Kd [1, 5]: 5.43 ± 1.1 µM | Kd [2, 6]: 9.09 ± 1.37 µM | Emax [3]: 61% | EC50 [4]: 9.65 µM | Effect on cell death [4]: Yes

[H]/N=C(\N)NN=Cc1ccc(Cl)cc1 [Compound 1, (E)-2-((4-chlorophenyl)methylene)hydrazine-1-carboximidamide]
Kd [1, 5]: 8.32 ± 0.14 µM | Kd [2, 6]: 7.33 ± 1.79 µM | Emax [3]: 0% | EC50 [4]: 4.9 µM | Effect on cell death [4]: Yes

[H]/N=C(\N)NN=Cc1cccc(Cl)c1Cl [Compound 16, (E)-2-(2,3-dichlorobenzylidene)hydrazine-1-carboximidamide]
Kd [1, 5]: 1.05 ± 0.013 µM | Kd ([1]; SPR, FIG. 1, read-out: KD for PPP1R15A-PP1): 1 µM | Kd ([2]; SPR, FIG. 1, read-out: KD for PPP1R15B-PP1): 0.035 µM | Emax [3]: 92% | EC50 [4]: 20.8 µM | Effect on cell death [4]: Yes

N=C(N)N/N=C/c1cc(Cl)c(Cl)cc1F [Compound 18, (E)-2-(4,5-dichloro-2-fluorobenzylidene)hydrazine-1-carboximidamide]
Kd [1, 5]: 10.2 ± 1.62 µM | Kd [2, 6]: 4.85 ± 0.14 µM | Emax [3]: 54% | EC50 [4]: 23.8 µM | Effect on cell death [4]: Yes

[H]/N=C(\N)NN=Cc1ccc(F)c(Cl)c1Cl [Compound 14, (E)-2-(2,3-dichloro-4-fluorobenzylidene)hydrazine-1-carboximidamide]
Kd [1, 5]: 5.45 ± 1.48 µM | Kd [2, 6]: 5.43 ± 1.26 µM | Emax [3]: 100% | EC50 [4]: 18.4 µM | Effect on cell death [4]: Yes

[H]/N=C(\N)NN=Cc1cccc(F)c1 [Compound 23, (E)-2-(3-fluorobenzylidene)hydrazine-1-carboximidamide]
Kd [1, 5]: 1.42 µM | Kd [2, 6]: 1.05 ± 0.32 µM | Emax [3]: 53% | Effect on cell death [4]: No

[H]/N=C(\N)NN=Cc1ccc(Cl)c(F)c1 [Compound 8, (E)-2-(4-chloro-3-fluorobenzylidene)hydrazine-1-carboximidamide]
Kd [1, 5]: 6.37 ± 1.03 µM | Kd [2, 6]: 11.3 µM | Emax [3]: 0% | EC50 [4]: 11.7 µM | Effect on cell death [4]: Yes

[H]/N=C(\N)NN=Cc1ccccc1F [Compound 17, (E)-2-(2-fluorobenzylidene)hydrazine-1-carboximidamide]
Kd [1, 5]: 13 ± 0.5 µM | Kd [2, 6]: 18.1 ± 1.8 µM | Emax [3]: 66% | Effect on cell death [4]: No

[H]/N=C(\N)NN=Cc1cccc(Cl)c1Br [Compound 9, (E)-2-(2-bromo-3-chlorobenzylidene)hydrazine-1-carboximidamide]
Kd [1, 5]: 13.6 ± 0.8 µM | Kd [2, 6]: 39.6 ± 5.9 µM | Emax [3]: 67% | EC50 [4]: 12 µM | Effect on cell death [4]: Yes

N=C(N)N/N=C/c1cc(Cl)c(Cl)c(Cl)c1 [Compound 3, (E)-2-(3,4,5-trichlorobenzylidene)hydrazine-1-carboximidamide]
Kd [1, 5]: 4.49 ± 1.47 µM | Kd [2, 6]: 0.149 µM | Emax [3]: 52% | EC50 [4]: 9.17 µM | Effect on cell death [4]: Yes

[H]/N=C(\N)NN=Cc1cccc(Cl)c1 [Compound 24, (E)-2-(3-chlorobenzylidene)hydrazine-1-carboximidamide]
Kd [1, 5]: 18.1 ± 7.57 µM | Kd [2, 6]: 18.7 µM | Emax [3]: 62% | Effect on cell death [4]: No

[H]/N=C(\N)NN=Cc1cc(Cl)ccc1Cl [Compound 26, (E)-2-(2,5-dichlorobenzylidene)hydrazine-1-carboximidamide]
Kd [1, 5]: 23.1 ± 0.9 µM | Kd [2, 6]: 30 ± 2.3 µM | Emax [3]: 57% | Effect on cell death [4]: No

[H]/N=C(\N)NN=Cc1cc(Cl)cc(Cl)c1 [Compound 34, (E)-2-(3,5-dichlorobenzylidene)hydrazine-1-carboximidamide]
Kd [1, 5]: 17.2 ± 1.9 µM | Kd [2, 6]: 31.3 ± 2 µM | Emax [3]: 57% | Effect on cell death [4]: No

[H]/N=C(\N)NN=Cc1ccc(F)c(Cl)c1 [Compound 15, (E)-2-(3-chloro-4-fluorobenzylidene)hydrazine-1-carboximidamide]
Kd [1, 5]: 11.2 µM | Kd [2, 6]: 7.68 ± 2.18 µM | Emax [3]: 46% | EC50 [4]: 19.5 µM | Effect on cell death [4]: Yes

[H]/N=C(\N)NN=Cc1c(Cl)ccc(Cl)c1Cl [Compound 31, (E)-2-(2,3,6-trichlorobenzylidene)hydrazine-1-carboximidamide]
Kd [1, 5]: 11.1 ± 1.6 µM | Kd [2, 6]: 14.3 ± 0.7 µM | Emax [3]: 99% | Effect on cell death [4]: No

[H]/N=C(\N)NN=Cc1cccnc1Cl [Compound 21, (E)-2-((2-chloropyridin-3-yl)methylene)hydrazine-1-carboximidamide]
Kd [1, 5]: 0.832 µM | Kd [2, 6]: 0.537 µM | Emax [3]: 41% | Effect on cell death [4]: No

[H]/N=C(\N)NN=Cc1cc(Cl)cc(Cl)c1Cl [Compound 10, (E)-2-(2,3,5-trichlorobenzylidene)hydrazine-1-carboximidamide]
Kd [1, 5]: 0.391 ± 0.14 µM | Kd [2, 6]: 0.44 ± 0.09 µM | Emax [3]: 85% | EC50 [4]: 12.5 µM | Effect on cell death [4]: Yes
